The test system of experiment [1] is H9 human embryonic stem cells (hESCs). In words: qPCR analysis of neural and retinal gene expression during hPSC neural/retina differentiation. In kind it is cell-based. The procedure:
hPSCs (H9, IMR-90-4 and WC30) were maintained under E8/feeder-free culture condition and passaged at 1:20 ratio with Rock inhibitor. After each new passage, the cells were fed with E8 medium for another 1˜2 days to reach 30-40% confluence. To initiate retina differentiation, culture medium was replaced with Retina Induction Medium (RIM) containing Neural induction medium (NIM) comprising DMEM/F12 media containing 1% N2 and 1× nonessential amino acids (NEAA) supplemented with 10 μM SB431542 (TGF inhibitor, Stemgent, 04-0010-10); this new passage day was counted as day 0 (DO) of retina differentiation. Cells were then fed daily with RIM, or every other day based on the cell density. On day 4, the cells were dissociated by ReLeSR (STEM CELL) or EDTA and re-suspended in the fresh RIM containing 0.5 micromolar (μM) Rock inhibitor. Cell clusters were thereafter transferred to a cell culture flask and cultured in suspension. On day 5, the resulting cell spheres were fed with RIM without SB431542. […] At day 20, the spheres were cultured in Transition medium (DMEM/F12: Neurobasal (1:1) with 1% N2, 2% B27, 1×NEAA and 1×Glutamax) until analysis.
Total RNA was isolated with the RNeasy Plus Mini Kit according to the manufacturer's instructions. For quantitative PCR (qPCR), cDNA was synthesized using PrimeScript RT Reagent Kit (Takara). qPCR was performed using iTaq Universal SYBR Green Supermix (Bio-Rad). GAPDH gene was used as an internal control to equalize cDNA.
H9 human embryonic stem cells (hESCs) were differentiated to neuroepithelia by culture in chemically defined media as disclosed above and then treated with inhibitors against BMP (DMH1), TGF-beta (SB-431542, SB), or WNT (IWR1) pathways separately for 6 days during the neural induction process (FIG. 2a).
Because SOX1 expression was known to be absent in retinal progenitors (also shown in FIG. 7a), expression of SOX2 and SOX1 presented a simple determining marker for cortical vs. retinal progenitors.
In general terms: Real-time PCR tracks product formation cycle by cycle.

The test system of another experiment is hPSCs. The experiment can be described thus: Single nucleus RNA-seq (snRNA-Seq) profiling of differentiating cells. The experiment is classed as cell-based, human. The following applies: day 12.
Experiment [2] concerns H9 human embryonic stem cells (hESCs). In words: Flow cytometry of differentiating cells for SOX2, SOX1 and PAX6. In kind it is cell-based. The following applies: day 12; FIG. 8a. As for the experimental part:
Flow cytometry was performed following manufacturer's instruction using Transcription Factor Buffer Set which is designed for transcription factor staining. Briefly, single cells were prepared using TrypLE Express Enzyme and fixed in the fixation buffer provided in the kit at 2-8° C. for 45 min. After 3 washings with the permeable buffer, the primary antibodies were added to cells for 45 min at 2-8° C. in a light-tight box. The cells were washed 3 times before incubation with fluorescently conjugated secondary antibodies for 45 mins at 2-8° C. in a light-tight box. After 3 times of washing, cells were suspended in the washing buffer and analyzed by flow cytometry (BD LSR or BD LSRII). Data analysis was performed using FlowJo. Antibodies used were: SOX2 (R&D Systems AF2018), SOX1 (R&D Systems AF3369), PAX6 Alexa Fluor 488 (BD Biosciences Cat #561664), SOX2-V450 (BD Biosciences Cat #561610), SOX1-PE (BD Biosciences Cat #561592), PAX6 (Covance Cat #PRB-278P), VSX2 (Exalpha, Cat #X1180P), CRX (Abnova, Cat #H00001406-M02), OPSIN (MilliporeSigma, Cat #AB5407). Due to the lack of retinal differentiation resulting from BMP inhibition, expression of retina genes was examined at multiple time points in SB and SB plus dorsomorphin homolog 1 (SB+DMH1), which was a well-established dual-SMAD inhibition condition for neural conversion (Chambers, S. M. et al., 2009, Nat Biotechnol 27:275-280). […]
(In general: In flow cytometry, cells or beads pass a laser one at a time.)

The mark [3] stands for this setting: inhibitor for 6 days during neural induction, vs control, qPCR, FIG. 2b.
[4] abbreviates: SB day 0-5, then DMH1 from day 6, vs control.
The mark [5] stands for this setting: inhibitor for 6 days during neural induction, qPCR, FIG. 2b.

Description for hPSCs: Differentiating cells at multiple time points (day 0-day 12) indicated below were digested and collected for nucleus isolation and library construction (Tao et al., 2024, Nat. Biotech. 12:1404-1416; https://doi.org/10.1038/s41587-023-01977-4). All libraries prepared in this way were processed by NovaSeq. Alignment of raw sequencing reads, and generation of feature barcode matrices were performed using Cellranger (7.1.0). Seurat (4.1.3) was used to process feature barcode matrices and analyze snRNA-Seq data32. All samples were processed under standard quality control metrics. Single cells with more than 300 unique genes (nFeature) and less than 15% or 20% mitochondrial gene reads (percent.mt) were selected for follow-up analysis. Additional procedures were used to exclude low quality cells and doublets in each sample (nFeature<6,000 and nCount<20,000). […] After quality control, all snRNA-Seq data were normalized using the SCTransform (v2) function in Seurat with mitochondria genes regressed out (Choudhary, S. et al., 2022, Genome Biol 23, 27). PCA and UMAP reduction, gene feature plots were done by using Seurat as well.
Single nucleus RNA-seq (snRNA-Seq) assays were performed to profile and compare the differentiating cells under the SB or SB+DMH1 conditions (FIG. 2d). On day 6, after filtering low quality and dead cells, 8,533 and 9,756 cells in the SB and SB+DMH1 groups were collected, respectively. Uniform manifold approximation and projection (UMAP) clustering identified 11 clusters in both conditions (FIG. 2e).
To verify this observation, cells were differentiated with only SB for the first 6 days to generate primitive neuroepithelial cells and then how the BMP pathway regulated retinal differentiation was investigated by treating the cells with or without DMH1 at day 6 (FIG. 2d). Cell nuclei were collected on day 12 for snRNA-Seq to compare differentiating cells in the control (medium without inhibitors) and under DMH1 conditions. […] UMAP clustering identified 13 clusters (FIGS. 2h-2j, FIG. 10a).

`CC(C)Oc1ccc(-c2cnc3c(-c4ccnc5ccccc45)cnn3c2)cc1` [DMH1]: in experiment [1] (setting [3]), the “expression of neural genes including PAX6 and SOX1” value is given as “efficiently induced”; the “expression of retinal lineage-specific markers RAX and VSX2” value is on record as “did not show much change”. In addition, in the experiment with hPSCs (setting [4]), the GLI3 expression entry is recorded as “downregulated”; the “MKI67 and NES expression levels in progenitor clusters” value is recorded as “much lower”; the “expression of EFTFs PAX6, LHX2, SIX3 and OTX2” value was “much lower or even absent”. The “expression of BMP target genes ID1/2/4” value with hPSCs (SB day 0-5, then DMH1 from day 6, FIG. 10b) was “much lower levels”.
As for `NC(=O)c1ccc(-c2nc(-c3ccc4c(c3)OCO4)c(-c3ccccn3)[nH]2)cc1` [SB], the “expression of retinal lineage-specific markers RAX and VSX2” value in experiment [1] (setting [3]) is “highest expression level”. Further, the “expression of SOX1 (definitive neuroepithelial marker)” value in experiment [1] (setting [5]) is “low expression”. In addition, the “expression pattern of SOX1 over time” value in experiment [1] (time course after day 6, SB condition vs BMP2 administration, FIG. 3c) is “increased steadily”. Also, the “SOX1 and SOX2 double positive cells (definitive neuroepithelial cells)” value in experiment [2] was 14%.
On to `O=C(Nc1cccc2cccnc12)c1ccc(N2C(=O)[C@@H]3[C@H](C2=O)[C@@H]2C=C[C@H]3C2)cc1` [IWR1], for which the “effect on retinal differentiation” value in experiment [1] (setting [5]) is “did not have much effect”.

(Values after patent publication US20250145946A1, “GENERATION OF PURE RETINAL CELLS FROM HUMAN PLURIPOTENT STEM CELLS” (Wisconsin Alumni Research Foundation, priority 2023, published 2025).)
